Measurements taken from US12509482B2, “3′-ketoglycoside compound for the slow release of a volatile alcohol” (GLYCOSCIENCE, S.L., priority 2020, dated 2025).
Read-outs that look alike come from different tables or passages of the source.

What was measured:
Type in all cases: physicochemical
[1] = Example 30: competitive release of alcohol from substrate stock solutions A-D (methyl-O-α-D-3′-ketoglucopyranoside, methyl-O-α-D-glucopyranoside, phenyl-O-β-D-3′-ketoglucopyranoside, phenyl-O-β-D-glucopyranoside, each with 4-nitrophenyl-O-β-D-glucopyranoside), 0.1 M phosphate buffer, 37° C., presence and absence of fresh skin wash; conditions: for alcohol release (in words): 37° C.
From the text: In this example, phenyl-O-β-D-3′-ketoglucopyranoside, methyl-O-α-D-3′-ketoglucopyranoside, phenyl-O-β-D-glucopyranoside, methyl-O-α-D-glucopyranoside and 4-nitrophenyl-O-β-D-glucopyranoside were used as model compounds to determine the rate of release of their respective alcohol rests under different conditions.
The competitive rate of release of methanol or phenol and 4-nitrophenol from a 1:1 stoichiometric mixture of (2R,5S,6S)-3,5-dihydroxy-2-(hydroxymethyl)-6-phenoxytetrahydro-4H-pyran-4-one (phenyl-O-β-D-3′-ketoglucopyranoside) or (2R,3R,5S,6S)-3,5-dihydroxy-2-(hydroxymethyl)-6-methoxytetrahydro-4H-pyran-4-one (methyl-O-α-D-3′ketoglucopyranoside) and their respective 0-glucopyranosides against (2R,3S,4S,5R,6S)-2-(hydroxymethyl)-6-(4-nitrophenoxy)tetrahydro-2H-pyran-3,4,5-triol (4-nitrophenyl-O-β-D-glucopyranoside) in 0.1 M deuterated phosphate buffer solutions at pH 5.7 and 7.0 containing 10% D6-DMSO at room temperature in the presence and absence of fresh skin washing solution was determined.
1 M Stock solutions of sodium dihydrogen phosphate and disodium hydrogen phosphate were prepared in deuterated water (D2O).
4-Nitrophenyl-O-β-D-glucopyranoside (50 mg) was dissolved in D6-DMSO (1 mL) and 0.2 mL of the resultant solution added to each of 10 mg of methyl-O-α-D-3′-ketoglucopyranoside, methyl-O-α-D-glucopyranoside, phenyl-O-β-D-3′-ketoglucopyranoside and phenyl-O-β-D-glucopyranoside to give substrate stock solutions A, B, C and D respectively.
In a typical experiment, a stock solution of fresh skin wash suspension was prepared by swabbing a 25 cm^2 area of cheek skin of a human volunteer by robustly rubbing the area with a cotton wool gauze (5×5 cm^2) soaked in D2O (12.5 mL) for 1 minute and then resuspending the gauze in the D2O solution, rapidly shaking and removing the gauze after squeezing out as much liquid as possible with a spatula.
1 M Stock solutions of phosphate buffer, pH 5.7 and 7.0 were prepared by appropriately mixing 1 M stock phosphate salts solutions to the correct pH as determined using a calibrated pH meter.
Half of each buffer stock solution was diluted ten times with D2O and the other with the above skin washing stock solution to give a 0.1 M phosphate buffer in D2O with a final pH of 5.7, 0.1 M phosphate buffer in D2O with a final pH of 7.0, a 0.1 M phosphate buffer in skin wash solution with a final pH of 5.7 and a 0.1 M phosphate buffer in skin wash solution with a final pH of 7.0.
To sixteen parallel reaction vials, was added 0.45 mL of low or high pH 0.1M phosphate buffer in D2O or 0.45 mL of low or high pH 0.1M phosphate buffer in skin wash solution followed by 0.05 mL of one of the glycoside substrate solutions in D6-DMSO and the mixtures incubated by shaking at 37° C. After times indicated in the table below, the mixtures where analysed by ^1H-NMR with 128 scans using a 400 MHz instrument and the colour observed visually, with the results shown in Table XVII: […]

[2] = Example 13: release of 4-nitrophenol from substrate A (4-nitrophenyl-O-β-D-3′-ketoglucopyranoside) vs substrate B (4-nitrophenyl-O-β-D-glucopyranoside), 0.1 M deuterated phosphate buffer or water, 10% D6-DMSO, room temperature; conditions: for 4-nitrophenol release (in words): varying solution pH, room temperature, 0.5 mL of aqueous solution; for composition by 1H-NMR (aromatic signals): approximately 26 h
Protocol: In this example, 4-nitrophenyl-O-β-D-3′-ketoglucopyranoside and 4-nitrophenyl-O-beta-D-glucopyranoside were used as model compounds to determine the rate of release of an aromatic alcohol (4-nitrophenol) under different conditions.
Rate of release of 4-nitrophenol from (2R,3R,5S,6S)-3,5-dihydroxy-2-(hydroxymethyl)-6-(4-nitrophenoxy)tetrahydro-4H-pyran-4-one (4-nitrophenyl-O-β-D-3′-ketoglucopyranoside) was determined in comparison to (2R,3S,4S,5R,6S)-2-(hydroxymethyl)-6-(4-nitrophenoxy)tetrahydro-2H-pyran-3,4,5-triol (para-nitrophenyl-O-β-D-glucopyranoside) in 0.1 M deuterated phosphate buffer solutions of differing pH containing 10% D6-DMSO or in water containing 10% D6-DMSO at room temperature.
1 M Stock solutions of sodium dihydrogen phosphate and disodium hydrogen phosphate were prepared in deuterated water (D2O). Stock solutions of 25 mg of 4-nitrophenyl-O-β-D-3′-ketoglucopyranoside (substrate A), 25 mg of 4-nitrophenyl-O-β-D-glucopyranoside (substrate B) in 0.5 mL of D6-DMSO were each prepared and a stock solution of 11 mg of 4-nitrophenol in the same volume of D6-DMSO for visual comparison.
Solutions of pH 4.5, 5.8, 7.4 and 9.5 were prepared by dilution of the appropriate individual or mixture of stock phosphate salt solutions to 0.1 M using a calibrated pH meter.
To ten parallel reaction vials was added 0.05 mL of one of the glycoside substrate stock solutions in D6-DMSO, 0.5 mL of the appropriate deuterated buffer solution or 0.5 mL of water were indicated in Table I below. The reaction vials were allowed to stand at room temperature and the colour of the solutions recorded by visual observation relative to the colour of authentic 4-nitrophenol solutions diluted in the same way, as shown in Table I:
After approximately 26 h, reactions 2 to 5 were all analysed by ^1H-NM R using 128 scans on a 400 MHz instrument.

[3] = Description: alcohol release from model compounds (III), (IV) and compound (V) in buffer, water and skin washings; conditions: for phenol release (in words): after 60 h
[4] = Example 22: competitive release of para-nitrophenol from an approximately equimolar solution of 4-nitrophenyl-O-β-D- and -O-α-D-3′-ketoglucopyranoside, 32° C., 1H NMR integrals
From the text: In this example the competitive rate of release of para-nitrophenol from an approximately equimolar solution of (2R,5S,6S)-3,5-dihydroxy-2-(hydroxymethyl)-6-(4-nitrophenoxy)tetrahydro-4H-pyran-4-one (4-nitrophenyl-O-β-D-3′-ketoglucopyranoside) and (2R,5S,6S)-3,5-dihydroxy-2-(hydroxymethyl)-6-(4-nitrophenoxy)tetrahydro-4H-pyran-4-one (4-nitrophenyl-O-α-D-3′-ketoglucopyranoside) in D2O containing 1.5% D6-DMSO or in 0.1 M deuterated phosphate buffer, pH 5.8 containing 1.5% D6-DMSO or in D2O was determined.
A solution containing approximately 2 mg each of 4-nitrophenyl-O-β-D-3′-ketoglucopyranoside and 4-nitrophenyl-O-α-D-3′-ketoglucopyranoside was prepared in 1 mL of D2O containing 3.3% v/v D6-DMSO. To two 0.375 mL portions of the resultant solution was added either D2O (0.5 mL) or 0.1M sodium phosphate buffer, pH 5.8 (0.5 mL) to given reactions 1 and 2 respectively. The resultant mixtures were analysed by ^1H NMR directly following preparation then incubated at 32° C./80 rpm and periodically analysed by ^1H NMR at recorded time points.
The change in the ratio between the integrals of the anomeric protons of each ketoglucoside and between the were sum of the anomeric protons and the anomeric protons of each ketoglucoside with time are shown in Table IX: […]

[5] = Example 21: release of methanol from substrate A (methyl-O-α-D-3′-ketoglucopyranoside) vs substrate B (methyl-O-α-D-glucopyranoside), 0.1 M phosphate buffer or water, room temperature then 37° C.
Protocol: In this example, methyl-O-α-D-3′-ketoglucopyranoside and methyl-O-α-D-glucopyranoside were used as model compounds to determine the rate of release of an aliphatic alcohol (methanol) under different conditions.
1 M Stock solutions of sodium dihydrogen phosphate and disodium hydrogen phosphate were prepared in deuterated water (D2O). Stock solutions of 15 mg of methyl-O-α-D-3′-ketoglucopyranoside (substrate A) and methyl-O-α-D-glucopyranoside (substrate B) were each prepared by dissolving in 0.3 mL of D6-DMSO.
Solutions of pH 4.5, 5.8 and 7.4 were prepared by dilution of the appropriate individual or mixture of stock phosphate salt solutions to 0.1 M using a calibrated pH meter.
To eight parallel reaction vials was added 0.05 mL of one of the glycoside substrate solutions in D6-DMSO, 0.5 mL of the appropriate deuterated buffer solution or 0.5 mL of water were indicated in the table below and the mixtures analysed by ^1H-NMR with 128 scans using a 400 MHz instrument to give an initial time reading.
The mixtures were then analysed in the same way after allowing to stand at room temperature for a further 22 h.
The mixtures were then incubated by shaking at 37° C. for a further 44 h and analysed in the same way.

[6] = pH 5.7, presence and absence of skin washing

Question: What does the source list for `O=[N+]([O-])c1ccc(O[C@@H]2O[C@H](CO)[C@@H](O)[C@H](O)[C@H]2O)cc1` [4-nitrophenyl-O-β-D-glucopyranoside, (2R,3S,4S,5R,6S)-2-(hydroxymethyl)-6-(4-nitrophenoxy)tetrahydro-2H-pyran-3,4,5-triol]?
Answer: alcohol release (in words) ([1]; pH 7, presence and absence of skin washings): release some 4-nitrophenol visually at pH 7 and typically to a greater extent in the presence of skin washings, but to such a low extent that no change was observed by NMR; 4-nitrophenol release (in words) [2]: releases virtually no 4-nitrophenol

Question: With `O=C1[C@@H](O)[C@H](Oc2ccccc2)O[C@H](CO)[C@H]1O` [phenyl-O-β-D-3′-ketoglucopyranoside, (2R,5S,6S)-3,5-dihydroxy-2-(hydroxymethyl)-6-phenoxytetrahydro-4H-pyran-4-one] as the compound, how does the “alcohol release (in words)” value [1, 6] read?
Answer: reacts slower than at pH 7 and to the same extent in the presence and absence of skin washing

Question: What about the “phenol release (in words)” value ([3]; buffer alone) of the same compound?
Answer: a small quantity of conjugate remained

Question: And the “phenol release (in words)” value ([3]; in the presence of skin washing)?
Answer: complete release of phenol

Question: Which “ratio of the sum of aromatic/β-ketoglucoside proton integrals” value (shortened to “ratio”) ([4]; Reaction 1, D2O, 0 h) does the source give for `O=C1[C@@H](O)[C@H](Oc2ccc([N+](=O)[O-])cc2)O[C@H](CO)[C@H]1O` [(2R,5S,6S)-3,5-dihydroxy-2-(hydroxymethyl)-6-(4-nitrophenoxy)tetrahydro-4H-pyran-4-one] here?
Answer: 6.8

Question: And the “ratio” value ([4]; Reaction 1, D2O, 20 h)?
Answer: 8.3

Question: What about the “ratio” value ([4]; Reaction 1, D2O, 45 h) of the same compound?
Answer: 8.8

Question: What about the “ratio” value ([4]; Reaction 1, D2O, 143 h) of the same compound?
Answer: 8.3

Question: What about the “ratio” value ([4]; Reaction 2, 0.1M sodium phosphate buffer, pH 5.8, 0 h) of the same compound?
Answer: 6.6

Question: What about the “ratio” value ([4]; Reaction 2, 0.1M sodium phosphate buffer, pH 5.8, 20 h) of the same compound?
Answer: 7.2

Question: What about the “ratio” value ([4]; Reaction 2, 0.1M sodium phosphate buffer, pH 5.8, 45 h) of the same compound?
Answer: 9.7

Question: What about the “ratio” value ([4]; Reaction 2, 0.1M sodium phosphate buffer, pH 5.8, 143 h) of the same compound?
Answer: 10.6

Question: What about the “composition by 1H-NMR (aromatic signals)” value ([2]; reaction 2, pH 4.5) of the same compound?
Answer: only starting material

Question: And the “composition by 1H-NMR (aromatic signals)” value ([2]; reaction 3, pH 5.8)?
Answer: a mixture to starting material and 4-nitrophenol

Question: And the “composition by 1H-NMR (aromatic signals)” value ([2]; reaction 4, pH 7.4)?
Answer: almost entirely 4-nitrophenol with a trace of starting material

Question: And the “composition by 1H-NMR (aromatic signals)” value ([2]; reaction 5, pH 9.5)?
Answer: almost entirely 4-nitrophenol with a trace of starting material

Question: What about the “4-nitrophenol release (in words)” value [2] of the same compound?
Answer: from no release at low pH to the delivery of μg quantities of 4-nitrophenol per minute

Question: For `OC[C@H]1O[C@@H](Oc2ccccc2)[C@H](O)[C@@H](O)[C@@H]1O` [phenyl-O-β-D-glucopyranoside], which “stability (in words)” value ([1]; pH 5.7) is on record?
Answer: stable under all conditions tested

Question: What does the source list for `CO[C@H]1O[C@H](CO)[C@@H](O)[C@H](O)[C@H]1O` [methyl-O-α-D-glucopyranoside]?
Answer: stability / methanol release (in words) [5]: remains stable over the pH range tested and in water; stability (in words) ([1]; all conditions tested (pH 5.7 and 7.0, with and without skin washing, 37° C.)): stable under all conditions tested

Question: What does the source list for `CO[C@H]1O[C@H](CO)[C@@H](O)C(=O)[C@H]1O` [methyl-O-α-D-3′-ketoglucopyranoside, (2R,3R,5S,6S)-3,5-dihydroxy-2-(hydroxymethyl)-6-methoxytetrahydro-4H-pyran-4-one]?
Answer: stability / methanol release (in words) ([5]; 37° C., pH range tested and water): stable at pH 4.5 and 5.8, but very slowly generates methanol at pH 7.4; alcohol release (in words) [1, 6]: no reaction is observed; methanol release (in words) ([3]; 0.1M sodium phosphate buffer in D2O, pH 7.0, 37° C., after 36 h): slowly liberates methanol; stability (in words) ([3]; deionised water, acidic pH): remained stable in deionised water and relatively stable at acidic pH; methanol release in the presence of skin washings (in words) ([3]; same temperature and pH (37° C., pH 7.0)): significantly more methanol than had been observed in buffer alone
